Data from PubChem BioAssay AID248 (DTP/NCI, 2004).
Several values for one entry are separate records, joined by “and”; a condition that tells them apart may be missing. Identical values can stand only once. Inconclusive results and toxic doses are left out. Cut-off read from the data, not from the text of the source: active = T/C of 150% or more; inactive = T/C below 125%. Square brackets hold non-standard residues; d marks the D form. Peptide text beside a SMILES is read from it. * marks the point of attachment. ξ: configuration not given here. ξF = NC(Cc1ccccc1)C(=O)O; Cbz = O=C(OCc1ccccc1)*; OBn = c1ccc(CO*)cc1

Tested on: L1210 leukemia ip in BDF1 mice, survival T/C
Assay: NCI In Vivo Anticancer Drug Screen. Data for tumor model L1210 Leukemia (intraperitoneal) in B6D2F1 (BDF1) mice
Details: endpoint: mean survival time, higher = longer survival
How it was run: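 Read-out is survival time, reported as the treated-group measurement over the vehicle-control measurement.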

[1] = dose: 100.0 mg/kg/injection, schedule: Q01DX009 (ip), vehicle: Klucel (hydroxypropylcellulose) (HPC)
[2] = dose: 100.0 mg/kg/injection, schedule: Q04DX003 (ip), vehicle: Klucel (hydroxypropylcellulose) (HPC)
[3] = dose: 200.0 mg/kg/injection, schedule: Q04DX003 (ip), vehicle: Klucel (hydroxypropylcellulose) (HPC)
[4] = dose: 400.0 mg/kg/injection, schedule: Q04DX003 (ip), vehicle: Klucel (hydroxypropylcellulose) (HPC)
[5] = dose: 100.0 mg/kg/injection, schedule: Q01DX009 (ip), vehicle: saline with Tween-80
[6] = dose: 100.0 mg/kg/injection, schedule: Q04DX003 (ip), vehicle: saline with Tween-80
[7] = dose: 200.0 mg/kg/injection, schedule: Q01DX009 (ip), vehicle: saline with Tween-80
[8] = dose: 200.0 mg/kg/injection, schedule: Q04DX003 (ip), vehicle: saline with Tween-80
[9] = dose: 400.0 mg/kg/injection, schedule: Q04DX003 (ip), vehicle: saline with Tween-80
[10] = dose: 100.0 mg/kg/injection, schedule: Q01DX001 (ip), vehicle: saline
[11] = dose: 200.0 mg/kg/injection, schedule: Q01DX001 (ip), vehicle: saline
[12] = dose: 100.0 mg/kg/injection, schedule: Q04DX002 (ip), vehicle: saline with Tween-80
[13] = dose: 100.0 mg/kg/injection, schedule: Q01DX001 (ip), vehicle: Klucel (hydroxypropylcellulose) (HPC)
[14] = dose: 200.0 mg/kg/injection, schedule: Q01DX001 (ip), vehicle: Klucel (hydroxypropylcellulose) (HPC)
[15] = dose: 400.0 mg/kg/injection, schedule: Q01DX001 (ip), vehicle: Klucel (hydroxypropylcellulose) (HPC)
[16] = dose: 100.0 mg/kg/injection, schedule: Q01DX009 (ip), vehicle: saline
[17] = dose: 400.0 mg/kg/injection, schedule: Q01DX001 (ip), vehicle: saline

Measured: T/C

Cc1cccc(NC(=O)COc2ccc(Cl)cc2)c1C
inactive: [1] 97 % of control | [2] 92 % of control | dose: 200.0 mg/kg/injection, schedule: Q01DX009 (ip), vehicle: Klucel (hydroxypropylcellulose) (HPC) 94 % of control | [3] 95 % of control | dose: 400.0 mg/kg/injection, schedule: Q01DX009 (ip), vehicle: Klucel (hydroxypropylcellulose) (HPC) 97 % of control | [4] 96 % of control

COC(=O)C(=C(c1ccccc1)c1ccccc1)c1ccccc1C(=O)O
inactive: [5] 90 % of control | [6] 101 % of control | [7] 88 % of control | [8] 93 % of control | dose: 400.0 mg/kg/injection, schedule: Q01DX009 (ip), vehicle: saline with Tween-80 96 % of control | [9] 92 % of control

CC(=O)[O][Pb]([O]C(C)=O)([O]C(C)=O)[c]1ccccc1
inactive: dose: 6.25 mg/kg/injection, schedule: Q01DX009 (ip), vehicle: gum acacia 102 % of control | dose: 12.5 mg/kg/injection, schedule: Q01DX009 (ip), vehicle: gum acacia 98 % of control | dose: 25.0 mg/kg/injection, schedule: Q01DX009 (ip), vehicle: gum acacia 95 % of control | dose: 50.0 mg/kg/injection, schedule: Q01DX009 (ip), vehicle: gum acacia 103 % of control | [10] 97 % of control | dose: 100.0 mg/kg/injection, schedule: Q04DX002 (ip), vehicle: gum acacia 107 % of control | [11] 103 % of control | dose: 200.0 mg/kg/injection, schedule: Q04DX002 (ip), vehicle: gum acacia 103 % of control

NCCN1C(c2ccccc2)C1c1ccccc1 (stereo unspecified)
inactive: dose: 50.0 mg/kg/injection, schedule: Q04DX003 (ip), vehicle: saline 94 % of control | dose: 100.0 mg/kg/injection, schedule: Q04DX003 (ip), vehicle: saline 94 % of control and 105 % of control | dose: 200.0 mg/kg/injection, schedule: Q04DX003 (ip), vehicle: saline 103 % of control | dose: 400.0 mg/kg/injection, schedule: Q04DX003 (ip), vehicle: saline 100 % of control

[O]=[Sb]([OH])([OH])[c]1ccccc1
inactive: dose: 12.5 mg/kg/injection, schedule: Q04DX002 (ip), vehicle: saline with Tween-80 100 % of control | dose: 25.0 mg/kg/injection, schedule: Q04DX002 (ip), vehicle: saline with Tween-80 100 % of control | dose: 50.0 mg/kg/injection, schedule: Q01DX009 (sc), vehicle: olive oil, sesame oil, peanut oil 97 % of control | dose: 50.0 mg/kg/injection, schedule: Q04DX002 (ip), vehicle: saline with Tween-80 103 % of control | dose: 100.0 mg/kg/injection, schedule: Q01DX009 (sc), vehicle: olive oil, sesame oil, peanut oil 95 % of control | [12] 90 % of control | dose: 100.0 mg/kg/injection, schedule: Q04DX003 (sc), vehicle: olive oil, sesame oil, peanut oil 97 % of control | dose: 200.0 mg/kg/injection, schedule: Q04DX003 (sc), vehicle: olive oil, sesame oil, peanut oil 93 % of control

Nc1ncc(-c2ccccc2)nn1 (tested in a mixture with another compound)
inactive: [13] 90 % of control | [14] 90 % of control | [15] 116 % of control

CCCC[Si](Cl)(CCCC)CCCC
inactive: dose: 50.0 mg/kg/injection, schedule: Q01DX009 (ip), vehicle: saline 90 % of control | [10] 95 % of control | [16] 92 % of control | [11] 108 % of control | dose: 200.0 mg/kg/injection, schedule: Q01DX009 (ip), vehicle: saline 90 % of control | [17] 90 % of control

O=C(CNC(=O)OCc1ccccc1)NC(Cc1ccccc1)C(=O)OCc1ccccc1 (stereo not drawn) (Cbz-Gly-[ξF]-OBn)
inactive: [6] 101 % of control | [8] 103 % of control | [9] 95 % of control

CCSCC1OC(n2cnc3c(N)ncnc32)CC1O (stereo unspecified)
inactive: [10] 98 % of control | [11] 104 % of control | [17] 92 % of control

O=C(O)c1ccccc1Nc1ccccc1
inactive: [13] 102 % of control | [14] 102 % of control | [15] 97 % of control

CCN(CC)CCOC(=O)C(c1ccccc1)C1C=CCCC1 (stereo unspecified)
inactive: dose: 75.0 mg/kg/injection, schedule: Q01DX001 (ip), vehicle: saline 102 % of control | dose: 150.0 mg/kg/injection, schedule: Q01DX001 (ip), vehicle: saline 92 % of control

N=c1ncn(C2OC(CO[P+](N)(O)O)C(O)C2O)c2nc[nH]c12 (stereo unspecified)
inactive: dose: 12.5 mg/kg/injection, schedule: Q01DX005 (ip), vehicle: water 110 % of control | dose: 25.0 mg/kg/injection, schedule: Q01DX005 (ip), vehicle: water 106 % of control

C=CCC(=O)OCC
inactive: dose: 222.0 mg/kg/injection, schedule: Q01DX Z (ip), vehicle: saline 94 % of control | dose: 333.0 mg/kg/injection, schedule: Q01DX Z (ip), vehicle: saline 108 % of control | dose: 500.0 mg/kg/injection, schedule: Q01DX Z (ip), vehicle: saline 94 % of control

COc1ccc(S(=O)(=O)NC(=O)NC23CC4CC(CC(C4)C2)C3)cc1
inactive: dose: 50.0 mg/kg/injection, schedule: Q01DX009 (ip), vehicle: Klucel (hydroxypropylcellulose) (HPC) 91 % of control | [1] 98 % of control | [2] 97 % of control | [3] 97 % of control | [4] 94 % of control

O=C1N/C(=N\OCCc2ccccc2)CC(NOCCc2ccccc2)N1 (stereo unspecified)
inactive: [6] 94 % of control | [8] 94 % of control | [9] 97 % of control

C=C[CH2][Sn]([CH2]C=C)([c]1ccccc1)[c]1ccccc1
inactive: dose: 1.56 mg/kg/injection, schedule: Q01DX009 (ip), vehicle: saline with Tween-80 97 % of control | dose: 3.13 mg/kg/injection, schedule: Q01DX009 (ip), vehicle: saline with Tween-80 92 % of control | dose: 6.25 mg/kg/injection, schedule: Q01DX009 (ip), vehicle: saline with Tween-80 86 % of control

CC[As](=O)(O)CC(C)C
inactive: [16] 96 % of control

CC(C)=CCCC/C=N/NC(N)=O
inactive: dose: 75.0 mg/kg/injection, schedule: Q01DX001 (ip), vehicle: acetone 102 % of control | dose: 150.0 mg/kg/injection, schedule: Q01DX001 (ip), vehicle: acetone 97 % of control

CCCCCCCC/C=C\CCCCCCCCOCC(O)CO (stereo unspecified)
inactive: dose: 50.0 mg/kg/injection, schedule: Q01DX009 (ip), vehicle: acetone 87 % of control | [10] 87 % of control | dose: 100.0 mg/kg/injection, schedule: Q01DX009 (ip), vehicle: acetone 93 % of control | dose: 100.0 mg/kg/injection, schedule: Q04DX003 (ip), vehicle: acetone 100 % of control | [11] 91 % of control | dose: 200.0 mg/kg/injection, schedule: Q04DX003 (ip), vehicle: acetone 103 % of control | [17] 86 % of control

COC(=O)c1ccc(OC(=O)Nc2ccccc2[N+](=O)[O-])cc1
inactive: [5] 97 % of control and 101 % of control | [12] 104 % of control and 110 % of control | [6] 107 % of control | [7] 96 % of control and 92 % of control | dose: 200.0 mg/kg/injection, schedule: Q04DX002 (ip), vehicle: saline with Tween-80 103 % of control and 104 % of control | [8] 113 % of control | dose: 400.0 mg/kg/injection, schedule: Q04DX002 (ip), vehicle: saline with Tween-80 94 % of control | [9] 101 % of control
